Measured values taken from publication PMC7479175, “Selection of Potent Inhibitors of Soluble Epoxide Hydrolase for Usage in Veterinary Medicine” (Frontiers in Veterinary Science, 2020).

Experiments:
Dog sEH [1] = molecular target: T1, Dog sEH (Canis lupus familiaris, UniProt A0A8I3NJL8); test: Secondary screen (kinetic mode), PHOME substrate; type: biochemical; conditions: [I] = 100 nM, secondary kinetic mode screening; read-out: Dog sEH Inhibition (%) S.
T1 sequence (A0A8I3NJL8 1-556): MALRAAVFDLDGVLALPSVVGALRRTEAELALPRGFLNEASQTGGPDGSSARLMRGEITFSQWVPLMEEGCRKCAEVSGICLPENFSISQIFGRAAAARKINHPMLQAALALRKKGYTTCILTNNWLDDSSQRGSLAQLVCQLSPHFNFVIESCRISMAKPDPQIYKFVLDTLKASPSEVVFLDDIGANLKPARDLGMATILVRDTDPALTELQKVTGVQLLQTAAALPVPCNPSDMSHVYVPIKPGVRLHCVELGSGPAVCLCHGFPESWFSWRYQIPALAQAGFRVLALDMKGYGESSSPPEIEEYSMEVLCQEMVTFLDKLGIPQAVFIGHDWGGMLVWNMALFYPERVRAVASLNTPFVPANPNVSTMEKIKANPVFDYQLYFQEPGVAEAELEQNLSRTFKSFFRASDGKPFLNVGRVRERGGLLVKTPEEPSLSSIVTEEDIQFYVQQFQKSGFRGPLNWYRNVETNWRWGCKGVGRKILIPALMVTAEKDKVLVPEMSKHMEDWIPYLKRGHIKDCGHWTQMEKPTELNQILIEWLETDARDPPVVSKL

Microsomal stability = type: in vitro ADME, dog; conditions: for Stability (% without microsomes) Dog liver microsomes NADPH + / Stability (% without microsomes) Dog liver microsomes NADPH –: 1 μM inhibitor, microsomes 1 mg/mL, 37°C, 30 min, compound remaining, average ± SD (n = 3); for Stability (% without microsomes) Dog liver microsomes NADPH +: with NADPH; for metabolism in dog liver microsomes (in words): in the presence of NADPH
Method: The stability of the sEH inhibitors was determined using liver microsomes as described ([24]). […] After 30 min at 37°C, the reaction was stopped by the addition of one volume of methanol containing CUDA (200 nM) as surrogate. The amount of remaining inhibitor was determined by LC/MS/MS. The stability is reported as a percentage of compound remaining after 30 min in these conditions.
Mass spectrometry analyses were performed using a Waters Quattro Premier triple quadrupole tandem mass spectrometer (Micromass, Manchester, UK) interfaced to an electrospray ionization (ESI) source. The MS was coupled with a Waters Acquity UPLC (Waters, Milford, MA, USA). A Varian Pursuit5 C18 RP HPLC column (150 mm × 2.1 mm, particle size 5 μm) was used to separate the analytes. […] The source and the desolvation temperatures were set at 120 and 300°C, respectively. […] Dwell time was set to 0.1 s.

Dog sEH [2] = molecular target: T1, Dog sEH; test: sEH inhibition potency (IC50), fluorescent assay with CMNPC, partially purified enzyme; type: biochemical; conditions: CMNPC ([S]final = 5 μM) as substrate; average ± standard deviation (n = 3)
Method: The sEH activity from the cat, dog and horse liver was further purified to eliminate contaminating esterase activity that could interfere with the screening fluorescent assay ([16]). The cytosolic fraction was loaded on a Q-Sepharose column (100 mL) equilibrated with sodium phosphate buffer (20 mM pH 7.4). After washing of the bound proteins, the sEH activity was eluted with a step gradient of NaCl (0–1 M). The fractions containing the sEH activity were pooled and concentrated using a Centriprep-30. The concentrates were aliquoted and flash frozen, then kept frozen at −80°C until usage. […] Protein concentration was quantified using the Pierce BCA assay (Pierce, Rockford, IL), using Fraction V bovine serum albumin (BSA) as the calibrating standard.
The IC50 values reported herein were determined using either a fluorescent based assay (CMNPC as substrate) for purified enzyme preparations or a radioactive based assay ([^3H]t-DPPO as substrate) for crude enzyme preparations ([20]). The fluorescent assay was used with the purified proteins. […] The substrate (CMNPC) was then added ([S]final = 5 μM). […] The radioactive […] assay was used with the liver crude extracts. […]

[3] = molecular target: T2, sEH activity from liver cytosol of Hamster (Mesocricetus auratus, UniProt A0A1U7QV09); test: sEH inhibition potency (IC50), radioactive assay with [3H]t-DPPO, liver cytosol; type: biochemical; conditions: [3H]t-DPPO ([S]final = 5 μM) as substrate
T2 sequence (A0A1U7QV09 1-554): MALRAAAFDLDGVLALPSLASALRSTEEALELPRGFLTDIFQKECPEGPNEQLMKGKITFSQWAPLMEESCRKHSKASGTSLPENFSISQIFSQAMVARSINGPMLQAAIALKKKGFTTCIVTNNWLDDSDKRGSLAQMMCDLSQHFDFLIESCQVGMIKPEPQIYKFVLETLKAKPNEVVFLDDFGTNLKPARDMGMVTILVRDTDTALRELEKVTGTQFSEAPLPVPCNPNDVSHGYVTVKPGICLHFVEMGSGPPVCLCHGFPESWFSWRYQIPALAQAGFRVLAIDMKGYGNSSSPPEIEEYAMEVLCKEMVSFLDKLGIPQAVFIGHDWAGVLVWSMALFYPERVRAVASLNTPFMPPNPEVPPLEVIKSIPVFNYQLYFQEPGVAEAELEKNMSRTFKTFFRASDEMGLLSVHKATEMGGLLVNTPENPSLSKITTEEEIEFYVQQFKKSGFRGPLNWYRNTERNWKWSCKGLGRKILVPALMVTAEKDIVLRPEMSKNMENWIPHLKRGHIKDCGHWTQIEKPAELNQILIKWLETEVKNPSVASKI
Source text: Fresh liver tissues samples (5–30 g) were collected promptly after death from healthy adult cat, dog and horse euthanized for reasons unrelated to this study, and whose bodies were given to science by the owners in line with federal regulations and protocol approved by the Institutional Animal Care and Use Committee at University of California Davis. Similarly, tissues from the other animals tested herein were collected from healthy animals immediately after being slaughter at the university abattoir. Because no animals were directly used or killed for this study, sample collections were exempted from approval by the Institutional Animal Care and Use Committee of the University of California Davis and Michigan State University. […] The tissues were flash-frozen in liquid nitrogen following removal, and then kept at −80°C until used. After thawing on ice, the samples were homogenized in chilled sodium phosphate buffer (20 mM pH 7.4) containing 5 mM EDTA, 1 mM DTT and 1 mM PMSF (tissue weight:buffer volume ratio 1:4). These homogenates were centrifuged at 100,000 g for 60 min at 4°C. The supernatant (the cytosolic fraction) was separated from the pellet, aliquoted and flash frozen in liquid nitrogen, then kept frozen at −80°C until usage.
The IC50 values reported herein were determined using either a fluorescent based assay (CMNPC as substrate) for purified enzyme preparations or a radioactive based assay ([^3H]t-DPPO as substrate) for crude enzyme preparations ([20]). The fluorescent assay was used with the purified proteins. […] The substrate (CMNPC) was then added ([S]final = 5 μM). […] The radioactive […] assay was used with the liver crude extracts. Extracts were incubated with inhibitors ([I]final = 1–1,000 nM) at 30° C for 5 min in sodium phosphate buffer (pH 7.4) containing 0.1 mg/mL of BSA and 1% of DMSO, prior to substrate introduction ([^3H]t-DPPO [S]final: 50 μM; ~12,000 dpm/assay). The enzymes were incubated at 30°C for 10 min, and the reaction was quenched by the addition of 60 μL methanol and 200 μL isooctane, which extracts the remaining epoxide from the aqueous phase. […] Assays were performed in triplicate.

| Compound | inhibition at 0.1 µM (Dog sEH [1]) | Stability (% without microsomes) Dog liver microsomes NADPH + (Microsomal stability) | Stability (% without microsomes) Dog liver microsomes NADPH – (Microsomal stability) | stability in dog liver microsomes (in words) (Microsomal stability; in the absence of NADPH) | metabolism in dog liver microsomes (in words) (Microsomal stability) | IC50 (Dog sEH [2]) | IC50 [3] |
| --- | --- | --- | --- | --- | --- | --- | --- |
| N#CNC(=O)CCCCCCCCCCCNC(=O)NC12CC3CC(CC(C3)C1)C2 [1,845] | 83% | 34 ± 11% | 84 ± 3% | not stable | further metabolized | 0.6 ± 0.04 nM | 34 nM |
| O=C(NCCCCOc1ccc(F)cc1)NC12CC3CC(CC(C3)C1)C2 [1,707] | 83% | 8 ± 3% | 87 ± 17% |  | metabolized rapidly | 0.9 ± 0.1 nM | 2 nM |
| O=C(Nc1ccc(OC(F)(F)F)cc1)N[C@H]1CC[C@H](Oc2ccc(C(=O)O)cc2)CC1 [1,728, trans-4-{4-[3-(4-trifluoromethoxy-phenyl)-ureido]-cyclohexyloxy}-benzoic acid] |  | 100 ± 3% | 104 ± 3% |  | most stable |  | 5 nM |
